A short description of this data set: Examination of the resistance to hydrolysis by 1H-NMR on storage. The class given is physicochemical. Particulars: 20% solution in DMSO-d6/D2O (1:1); for hydrolysis products in the 1H-NMR spectrum at the start of the investigation: 37° C., at the start / immediately. The protocol:
To examine the hydrolysis stabilities of the monomers MAM-EDTA and MA-EDTA, respectively, in each case a 20% solution in DMSO-d6/D2O (1:1) was stored at 37° C. At certain intervals, the ^1H-NMR spectra of these solutions were recorded. […] After 119 days' storage at 37° C., approx. 50% of the methacrylic ester groups had been hydrolyzed. In contrast, the monomer MAM-EDTA according to the invention was clearly more hydrolysis-resistant.

On to “EDTA-di(2-methacryloyloxyethyl)ester [MA-EDTA]”, for which the “hydrolysis products in the 1H-NMR spectrum at the start of the investigation” value was “a second double-bond signal could be observed immediately”. For the same substance, the “methacrylic ester groups hydrolyzed” value (after 119 days' storage at 37° C., 1H-NMR) is on record as “approx. 50%”.

For “EDTA-di(5-methacrylamidopentyl)ester [MAM-EDTA]”, the “hydrolysis products in the 1H-NMR spectrum at the start of the investigation” value is reported as “no hydrolysis products could be recognized”. Further, the “additional double-bond signals in the 1H-NMR spectrum” value (after 119 days at 37° C.) is given as “no additional double-bond signals could be detected”.

For the origin of these results see US20090139433A1, “DENTAL MATERIALS BASED ON ALKYLENEDIAMINE-N,N,N',N'- TETRAACETIC ACID- (METH)ACRYLAMIDES” (Ivoclar Vivadent AG, priority 2007, published 2009).
